Measured values reported in patent publication US9458137B2, “Substituted indol-5-ol derivatives and their therapeutical applications” (NantBioScience, Inc., priority 2012, dated 2016).

Tests used:
Experiment in all cases: Kinase panel activity
Assay type in all cases: biochemical
Settings in all cases: 0.1 μM, ATP Km
F1t3(h) = F1t3(h) (Homo sapiens, UniProt P36888)
Method: (§1) The effect of NTW-3475 on kinase activity was tested for a wide range of kinases and is shown in Table 2: Summary Sheet, Activity % ATP Concentration: Km

MST1(h) = MST1(h) (Homo sapiens, UniProt Q13043)
Method: as §1

Aurora-C(h) = Aurora-C(h) (Homo sapiens, UniProt Q9UQB9)
Aurora-C(h), sequence (Q9UQB9 whole entry): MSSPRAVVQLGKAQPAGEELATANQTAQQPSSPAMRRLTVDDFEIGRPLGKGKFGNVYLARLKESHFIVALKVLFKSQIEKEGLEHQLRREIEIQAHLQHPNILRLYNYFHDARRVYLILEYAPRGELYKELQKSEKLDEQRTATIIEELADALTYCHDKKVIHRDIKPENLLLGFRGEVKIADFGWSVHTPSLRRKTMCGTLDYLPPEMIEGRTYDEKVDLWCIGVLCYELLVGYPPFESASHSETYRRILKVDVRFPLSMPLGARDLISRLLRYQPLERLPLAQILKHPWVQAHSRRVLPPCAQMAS
Method: as §1

Ab1(Y253F)(h) = Ab1(Y253F)(h) (Homo sapiens, UniProt P00519, Y253F)
Method: as §1

Fyn(h) = Fyn(h) (Homo sapiens, UniProt P06241)
Method: as §1

MINK(h) = target: T1, MINK(h) (Homo sapiens, UniProt Q8N4C8)
T1 construct: purchased Millipore (KinaseProfiler service)
Method: as §1

Haspin(h) = Haspin(h) (Homo sapiens, UniProt Q8TF76)
Method: as §1

ASK1(h) = ASK1(h) (Homo sapiens, UniProt Q99683)
Method: as §1

MAPK1(h) = MAPK1(h) (Homo sapiens, UniProt P27361)
Method: as §1

IGF-1R(h) = IGF-1R(h) (Homo sapiens, UniProt P08069)
IGF-1R(h), sequence (P08069 31-1367): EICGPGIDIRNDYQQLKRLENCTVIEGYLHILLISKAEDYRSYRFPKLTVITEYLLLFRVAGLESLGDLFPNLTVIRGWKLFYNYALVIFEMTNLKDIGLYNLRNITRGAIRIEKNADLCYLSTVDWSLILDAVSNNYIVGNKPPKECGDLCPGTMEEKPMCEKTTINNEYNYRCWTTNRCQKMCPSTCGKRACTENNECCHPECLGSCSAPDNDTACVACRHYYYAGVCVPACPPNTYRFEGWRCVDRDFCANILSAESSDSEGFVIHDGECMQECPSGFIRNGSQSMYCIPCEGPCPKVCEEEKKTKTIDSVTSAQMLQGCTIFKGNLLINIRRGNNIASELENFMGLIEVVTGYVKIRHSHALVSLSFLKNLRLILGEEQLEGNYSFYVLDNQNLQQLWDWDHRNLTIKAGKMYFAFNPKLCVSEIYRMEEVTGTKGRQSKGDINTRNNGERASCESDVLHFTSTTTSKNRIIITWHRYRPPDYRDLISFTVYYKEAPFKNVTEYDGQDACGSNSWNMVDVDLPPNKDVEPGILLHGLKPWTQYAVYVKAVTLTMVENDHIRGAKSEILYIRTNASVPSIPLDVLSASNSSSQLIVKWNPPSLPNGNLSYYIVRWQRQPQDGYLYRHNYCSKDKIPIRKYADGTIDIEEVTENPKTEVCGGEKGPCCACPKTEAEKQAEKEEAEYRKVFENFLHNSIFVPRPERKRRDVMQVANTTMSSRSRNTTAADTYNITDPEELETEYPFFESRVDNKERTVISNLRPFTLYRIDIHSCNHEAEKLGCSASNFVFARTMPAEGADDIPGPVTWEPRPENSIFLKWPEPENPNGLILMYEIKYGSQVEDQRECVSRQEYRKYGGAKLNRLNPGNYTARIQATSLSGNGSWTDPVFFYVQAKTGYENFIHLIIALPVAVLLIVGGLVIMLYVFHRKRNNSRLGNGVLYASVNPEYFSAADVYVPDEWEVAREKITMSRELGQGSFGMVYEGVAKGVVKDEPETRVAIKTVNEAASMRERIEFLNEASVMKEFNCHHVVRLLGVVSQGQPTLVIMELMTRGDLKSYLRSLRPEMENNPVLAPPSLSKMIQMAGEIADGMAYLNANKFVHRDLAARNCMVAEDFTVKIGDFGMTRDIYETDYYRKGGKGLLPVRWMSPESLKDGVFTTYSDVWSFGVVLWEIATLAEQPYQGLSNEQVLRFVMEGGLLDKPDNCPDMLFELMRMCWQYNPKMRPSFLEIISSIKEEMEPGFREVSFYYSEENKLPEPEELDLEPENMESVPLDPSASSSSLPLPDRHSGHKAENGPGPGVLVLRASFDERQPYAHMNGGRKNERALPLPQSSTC
Method: as §1

IRR(h) = IRR(h) (Homo sapiens, UniProt P14616)
Method: as §1

TSSK2(h) = target: T2, TSSK2(h) (Homo sapiens, UniProt Q96PF2)
T2 construct: purchased Millipore (KinaseProfiler service)
Method: as §1

Pim-1(h) = Pim-1(h) (Homo sapiens, UniProt P11309)
Method: as §1

DMPK(h) = DMPK(h) (Homo sapiens, UniProt Q09013)
Method: as §1

PKCβII(h) = PKCβII(h) (Homo sapiens, UniProt P05771)
Method: as §1

JAK3(h) = JAK3(h) (Homo sapiens, UniProt P52333)
JAK3(h), sequence (P52333 whole entry): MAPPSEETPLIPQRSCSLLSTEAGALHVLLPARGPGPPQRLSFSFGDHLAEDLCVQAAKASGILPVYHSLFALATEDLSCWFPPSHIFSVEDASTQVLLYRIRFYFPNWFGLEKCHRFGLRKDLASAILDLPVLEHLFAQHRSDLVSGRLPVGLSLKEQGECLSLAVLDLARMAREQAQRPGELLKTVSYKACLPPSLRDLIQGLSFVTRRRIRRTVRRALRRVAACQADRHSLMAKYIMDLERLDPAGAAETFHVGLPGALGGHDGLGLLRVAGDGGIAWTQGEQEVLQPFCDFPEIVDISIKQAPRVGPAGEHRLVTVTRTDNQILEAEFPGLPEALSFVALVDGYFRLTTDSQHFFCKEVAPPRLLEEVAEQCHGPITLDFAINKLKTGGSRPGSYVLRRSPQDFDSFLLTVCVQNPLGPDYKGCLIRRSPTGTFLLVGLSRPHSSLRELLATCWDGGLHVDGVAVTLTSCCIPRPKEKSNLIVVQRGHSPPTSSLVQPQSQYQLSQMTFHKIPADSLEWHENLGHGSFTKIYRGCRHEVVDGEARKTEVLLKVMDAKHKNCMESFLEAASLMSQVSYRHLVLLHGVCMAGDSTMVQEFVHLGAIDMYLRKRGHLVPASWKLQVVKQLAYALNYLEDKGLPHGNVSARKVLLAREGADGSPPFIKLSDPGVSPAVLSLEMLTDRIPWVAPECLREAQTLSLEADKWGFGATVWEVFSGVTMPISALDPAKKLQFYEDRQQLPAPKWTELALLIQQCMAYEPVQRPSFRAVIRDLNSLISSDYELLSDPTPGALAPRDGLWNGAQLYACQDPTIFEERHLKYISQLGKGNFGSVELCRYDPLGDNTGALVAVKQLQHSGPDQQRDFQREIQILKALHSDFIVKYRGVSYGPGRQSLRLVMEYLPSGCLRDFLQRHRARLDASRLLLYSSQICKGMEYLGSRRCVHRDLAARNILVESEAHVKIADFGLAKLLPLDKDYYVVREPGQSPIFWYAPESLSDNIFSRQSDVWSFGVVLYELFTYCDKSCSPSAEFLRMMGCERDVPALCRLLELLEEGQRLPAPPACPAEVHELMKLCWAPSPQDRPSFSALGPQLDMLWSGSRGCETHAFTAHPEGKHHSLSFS
Method: as §1

WNK3(h) = WNK3(h) (Homo sapiens, UniProt Q9BYP7)
Method: as §1

ROCK-I(h) = target: T3, ROCK-I(h) (Homo sapiens, UniProt Q13464)
T3 construct: purchased Millipore (KinaseProfiler service)
Method: as §1

Lyn(h) = Lyn(h) (Homo sapiens, UniProt P07948)
Method: as §1

CK1δ(h) = CK1δ(h) (Homo sapiens, UniProt P48730)
Method: as §1

EGFR(T790M,L858R)(h) = target: T4, EGFR(T790M,L858R)(h) (Homo sapiens, UniProt P00533, L858R/T790M)
T4 construct: purchased Millipore (KinaseProfiler service)
Method: as §1

HIPK3(h) = HIPK3(h) (Homo sapiens, UniProt Q9H422)
Method: as §1

MST3(h) = MST3(h) (Homo sapiens, UniProt Q9Y6E0)
Method: as §1

TrkA(h) = target: T5, TrkA(h) (Homo sapiens, UniProt P04629)
T5 construct: purchased Millipore (KinaseProfiler service)
Method: as §1

ZIPK(h) = ZIPK(h) (Homo sapiens, UniProt O43293)
Method: as §1

PhKγ2(h) = PhKγ2(h) (Homo sapiens, UniProt P15735)
Method: as §1

Hck(h) activated = Hck(h) activated (Homo sapiens, UniProt P08631)
Hck(h) activated, sequence (P08631 whole entry): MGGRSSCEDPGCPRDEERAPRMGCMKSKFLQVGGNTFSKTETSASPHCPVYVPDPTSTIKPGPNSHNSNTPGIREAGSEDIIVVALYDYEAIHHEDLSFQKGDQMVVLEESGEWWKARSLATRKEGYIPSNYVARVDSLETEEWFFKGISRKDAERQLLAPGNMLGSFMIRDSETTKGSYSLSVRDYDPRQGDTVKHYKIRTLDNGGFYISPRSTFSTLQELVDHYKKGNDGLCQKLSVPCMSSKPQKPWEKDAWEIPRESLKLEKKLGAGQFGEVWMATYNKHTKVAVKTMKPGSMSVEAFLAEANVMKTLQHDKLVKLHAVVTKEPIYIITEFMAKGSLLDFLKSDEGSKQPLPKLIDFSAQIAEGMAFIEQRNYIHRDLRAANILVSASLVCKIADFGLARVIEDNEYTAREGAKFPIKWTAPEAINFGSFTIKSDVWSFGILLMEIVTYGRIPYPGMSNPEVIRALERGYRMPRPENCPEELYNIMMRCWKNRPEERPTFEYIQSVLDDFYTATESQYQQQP
Method: as §1

JNK2α2(h) = JNK2α2(h) (Homo sapiens, UniProt P45984)
Method: as §1

B1k(h) = B1k(h) (Homo sapiens, UniProt P51451)
Method: as §1

MSK1(h) = target: T6, MSK1(h) (Homo sapiens, UniProt O75582)
T6 construct: purchased Millipore (KinaseProfiler service)
Method: as §1

Ab1(H396P)(h) = Ab1(H396P)(h) (Homo sapiens, UniProt P00519, H396P)
Method: as §1

KDR(h) = KDR(h) (Homo sapiens, UniProt P35968)
Method: as §1

PKG1α(h) = PKG1α(h) (Homo sapiens, UniProt Q13976)
Method: as §1

VRK2(h) = VRK2(h) (Homo sapiens, UniProt Q86Y07)
Method: as §1

Txk(h) = Txk(h) (Homo sapiens, UniProt P42681)
Method: as §1

LIMK1(h) = LIMK1(h) (Homo sapiens, UniProt P53667)
Method: as §1

CK1γ2(h) = CK1γ2(h) (Homo sapiens, UniProt P78368)
Method: as §1

EphA3(h) = target: T7, EphA3(h) (Homo sapiens, UniProt P29320)
T7 construct: purchased Millipore (KinaseProfiler service)
Method: as §1

SAPK3(h) = target: T8, SAPK3(h) (Homo sapiens, UniProt P53778)
T8 construct: purchased Millipore (KinaseProfiler service)
Method: as §1

PAK6(h) = PAK6(h) (Homo sapiens, UniProt Q9NQU5)
PAK6(h), sequence (Q9NQU5 whole entry): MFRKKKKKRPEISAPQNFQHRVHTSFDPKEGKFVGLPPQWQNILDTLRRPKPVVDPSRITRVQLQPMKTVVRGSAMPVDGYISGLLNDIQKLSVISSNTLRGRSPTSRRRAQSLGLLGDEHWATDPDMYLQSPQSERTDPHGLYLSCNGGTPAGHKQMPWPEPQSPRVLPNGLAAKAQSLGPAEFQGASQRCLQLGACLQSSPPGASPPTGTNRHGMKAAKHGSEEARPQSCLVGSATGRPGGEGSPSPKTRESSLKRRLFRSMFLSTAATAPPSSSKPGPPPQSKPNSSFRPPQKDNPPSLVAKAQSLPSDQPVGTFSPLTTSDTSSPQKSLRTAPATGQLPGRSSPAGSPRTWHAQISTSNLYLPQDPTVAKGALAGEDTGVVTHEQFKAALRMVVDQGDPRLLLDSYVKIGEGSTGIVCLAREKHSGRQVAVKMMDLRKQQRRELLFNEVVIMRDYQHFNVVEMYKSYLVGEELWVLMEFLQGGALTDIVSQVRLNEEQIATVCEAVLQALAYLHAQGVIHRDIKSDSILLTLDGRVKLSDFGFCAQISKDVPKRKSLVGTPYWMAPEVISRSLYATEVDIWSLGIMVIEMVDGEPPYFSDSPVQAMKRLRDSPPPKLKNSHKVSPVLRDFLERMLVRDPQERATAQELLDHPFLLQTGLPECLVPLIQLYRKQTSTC
Method: as §1

F1t3(h), sequence (P36888 27-993): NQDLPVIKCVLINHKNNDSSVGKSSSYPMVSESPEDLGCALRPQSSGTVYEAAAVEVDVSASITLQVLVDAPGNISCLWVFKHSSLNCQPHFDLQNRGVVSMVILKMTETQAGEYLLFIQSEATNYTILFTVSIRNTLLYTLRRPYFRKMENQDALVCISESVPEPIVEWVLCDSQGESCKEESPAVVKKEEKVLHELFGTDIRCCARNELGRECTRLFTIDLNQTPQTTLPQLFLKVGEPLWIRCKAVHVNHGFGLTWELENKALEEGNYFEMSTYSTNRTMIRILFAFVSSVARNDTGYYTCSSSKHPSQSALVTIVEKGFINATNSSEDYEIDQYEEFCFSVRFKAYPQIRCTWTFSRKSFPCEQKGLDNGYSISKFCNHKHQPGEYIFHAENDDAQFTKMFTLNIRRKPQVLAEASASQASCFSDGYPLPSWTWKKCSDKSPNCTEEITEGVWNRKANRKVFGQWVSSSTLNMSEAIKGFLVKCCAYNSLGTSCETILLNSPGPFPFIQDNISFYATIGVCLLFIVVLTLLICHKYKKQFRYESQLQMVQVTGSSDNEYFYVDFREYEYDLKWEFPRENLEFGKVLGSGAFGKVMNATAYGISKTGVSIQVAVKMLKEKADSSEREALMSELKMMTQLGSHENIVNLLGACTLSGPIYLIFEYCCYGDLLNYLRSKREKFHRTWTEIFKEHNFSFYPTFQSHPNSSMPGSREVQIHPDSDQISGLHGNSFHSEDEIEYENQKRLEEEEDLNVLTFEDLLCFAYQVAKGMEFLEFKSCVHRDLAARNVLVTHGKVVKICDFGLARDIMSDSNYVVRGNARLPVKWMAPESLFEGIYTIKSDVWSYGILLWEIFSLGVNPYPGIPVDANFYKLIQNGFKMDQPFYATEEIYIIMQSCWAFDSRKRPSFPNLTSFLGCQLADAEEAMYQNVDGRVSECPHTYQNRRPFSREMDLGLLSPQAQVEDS

Work on Cc1cc2c(F)c(Oc3nc(Nc4cc(C5CC5)[nH]n4)cc(N4CCN(C)CC4)n3)cc(F)c2[nH]1 [NTW-3475] yielded an Activity % (F1t3(h)) of 1%, an Activity % (MST1(h)) of 24% and an Activity % (Aurora-C(h)) of 21%. It also gave an Activity % (Ab1(Y253F)(h)) of −2%, an Activity % (Fyn(h)) of 1% and an Activity % (MINK(h)) of 75%. For the same compound, the Activity % (Haspin(h)) was 96%, the Activity % (ASK1(h)) was 112% and the Activity % (MAPK1(h)) was 128%. The Activity % (IGF-1R(h)) was 5%, the Activity % (IRR(h)) was 6% and the Activity % (TSSK2(h)) was 84%. The Activity % (Pim-1(h)) was 114%, the Activity % (DMPK(h)) was 102% and the Activity % (PKCβII(h)) was 109%. For the same compound, the Activity % (JAK3(h)) was 3%, the Activity % (WNK3(h)) was 86% and the Activity % (ROCK-I(h)) was 93%. For the same compound, the Activity % (Lyn(h)) was 5%, the Activity % (CK1δ(h)) was 91% and the Activity % (EGFR(T790M,L858R)(h)) was 17%. The Activity % (HIPK3(h)) was 88%, the Activity % (MST3(h)) was 9% and the Activity % (TrkA(h)) was 2%. For the same compound, the Activity % (ZIPK(h)) was 104%, the Activity % (PhKγ2(h)) was 77% and the Activity % (Hck(h) activated) was 12%. It also gave an Activity % (JNK2α2(h)) of 107%, an Activity % (B1k(h)) of 9% and an Activity % (MSK1(h)) of 104%. The Activity % (Ab1(H396P)(h)) was −3%, the Activity % (KDR(h)) was 14% and the Activity % (PKG1α(h)) was 100%. For the same compound, the Activity % (VRK2(h)) was 99%, the Activity % (Txk(h)) was 20% and the Activity % (LIMK1(h)) was 15%. It also gave an Activity % (CK1γ2(h)) of 134%, an Activity % (EphA3(h)) of 22% and an Activity % (SAPK3(h)) of 115%. It also gave an Activity % (PAK6(h)) of 85%.
